In patent publication US4459290A, “C-23-Modified derivatives of OMT, pharmaceutical compositions and method of use” (priority 1982, dated 1984):
≈ marks a conversion by molar mass, not a printed value. Read-outs that look alike come from different tables or passages of the source.

Experiments:
[1] = system: Streptococcus pyogenes C203; test: MIC, standard agar-dilution assay (Table V); assay type: cell-based; conditions: Streptococcus pyogenes
Protocol: (§1) The MIC's in Tables V and VI were determined by standard agar-dilution assays. The MIC's in Table VII were obtained using a conventional broth-dilution microtiter test.

[2] = system: Haemophilus influenzae R252; test: MIC, standard agar-dilution assay (Table V); assay type: cell-based; conditions: Haemophilus influenzae
Protocol: as §1

Escherichia coli TEM = test: MIC, standard agar-dilution assay (Table V); assay type: cell-based; conditions: Escherichia coli
Protocol: as §1

Streptococcus Group 9960 = test: MIC, standard agar-dilution assay (Table V); assay type: cell-based; conditions: GROUP9960
Protocol: (§2) Especially noteworthy is the improved activity against gram-negative bacteria for several derivatives when compared to the activity of OMT. […] The MIC's in Tables V and VI were determined by standard agar-dilution assays. The MIC's in Table VII were obtained using a conventional broth-dilution microtiter test.

[3] = system: Staphylococcus aureus X400; test: MIC, standard agar-dilution assay (Table V); assay type: cell-based; conditions: Staphylococcus aureus, X400
Protocol: as §2

Escherichia coli N10 = test: MIC, standard agar-dilution assay (Table V); assay type: cell-based; conditions: Escherichia coli
Protocol: as §2

[4] = system: Staphylococcus epidermidis EPI1; test: MIC, standard agar-dilution assay (Table V); assay type: cell-based; conditions: Staphylococcus epidermidis, EPI1
Protocol: as §2

[5] = system: Staphylococcus epidermidis EPI2; test: MIC, standard agar-dilution assay (Table V); assay type: cell-based; conditions: Staphylococcus epidermidis, EPI2
Protocol: as §2

[6] = system: Staphylococcus aureus V41; test: MIC, standard agar-dilution assay (Table V); assay type: cell-based; conditions: Staphylococcus aureus, V41
Protocol: as §2

[7] = system: Klebsiella pneumoniae KAE; test: MIC, standard agar-dilution assay (Table V); assay type: cell-based; conditions: Klebsiella pneumoniae
Protocol: as §2

[8] = system: Streptococcus Group D X66; test: MIC, standard agar-dilution assay (Table V); assay type: cell-based
Protocol: as §2

Escherichia coli EC14 = test: MIC, standard agar-dilution assay (Table V); assay type: cell-based; conditions: Escherichia coli
Protocol: as §2

[9] = system: Staphylococcus aureus X1.1; test: MIC, standard agar-dilution assay (Table V); assay type: cell-based; conditions: Staphylococcus aureus, X1.1
Protocol: as §2

Shigella sonnei N9 = test: MIC, standard agar-dilution assay (Table V); assay type: cell-based
Protocol: as §2

[10] = system: Staphylococcus aureus S13E; test: MIC, standard agar-dilution assay (Table V); assay type: cell-based; conditions: Staphylococcus aureus, S13E
Protocol: as §2

[11] = system: Klebsiella pneumoniae X26; test: MIC, standard agar-dilution assay (Table V); assay type: cell-based; conditions: Klebsiella pneumoniae
Protocol: as §2

[12] = system: Streptococcus pneumoniae Park I; test: microbe, parasite or virus in culture; assay type: cell-based; conditions: Streptococcus pneumoniae
Protocol: as §2

[13] = system: Pasteurella hemolytica 23C; test: MIC, broth-dilution microtiter test (Table VII); assay type: cell-based; conditions: Pasteurella, P. hemolytica 23C, read-out: MIC
Protocol: as §2

Mycoplasma synoviae = test: MIC, broth-dilution microtiter test (Table VII); assay type: cell-based; conditions: Mycoplasmopsis synoviae
Protocol: as §2

Streptococcus sp. 80 = test: MIC, broth-dilution microtiter test (Table VII); assay type: cell-based
Protocol: as §2

[14] = system: Pasteurella hemolytica 22C; test: MIC, broth-dilution microtiter test (Table VII); assay type: cell-based; conditions: Pasteurella, P. hemolytica 22C, read-out: MIC
Protocol: as §2

[15] = system: Pasteurella multocida 22A; test: MIC, broth-dilution microtiter test (Table VII); assay type: cell-based; conditions: Pasteurella multocida
Protocol: as §2

Staphylococcus aureus = test: MIC, broth-dilution microtiter test (Table VII); assay type: cell-based; conditions: Staphylococcus aureus
Protocol: as §2

Mycoplasma gallisepticum = test: MIC, broth-dilution microtiter test (Table VII); assay type: cell-based; conditions: Mycoplasmoides gallisepticum
Protocol: as §2

Mycoplasma hyorhinis = test: MIC, broth-dilution microtiter test (Table VII); assay type: cell-based
Protocol: as §2

[16] = system: Pasteurella hemolytica 41D; test: MIC, broth-dilution microtiter test (Table VII); assay type: cell-based; conditions: Pasteurella, P. hemolytica 41D, read-out: MIC
Protocol: as §2

[17] = system: Pasteurella multocida 40G; test: MIC, broth-dilution microtiter test (Table VII); assay type: cell-based; conditions: Pasteurella multocida, 40G
Protocol: as §2

[18] = system: Pasteurella multocida 60A; test: MIC, broth-dilution microtiter test (Table VII); assay type: cell-based; conditions: Pasteurella multocida, 60A
Protocol: as §2

[19] = system: Pasteurella multocida 17E; test: MIC, broth-dilution microtiter test (Table VII); assay type: cell-based; conditions: Pasteurella multocida, 17E
Protocol: as §2

[20] = system: Pasteurella multocida 68C; test: MIC, broth-dilution microtiter test (Table VII); assay type: cell-based; conditions: Pasteurella multocida
Protocol: as §2

Pasteurella multocida = test: Protection of one-day-old chicks against Pasteurella multocida infection (Table IX); assay type: in vivo; conditions: subcutaneous 30 mg/kg × 2, 1 and 4 hours post-challenge
Protocol: The C-23 modified derivatives of OMT have also shown in vivo antibacterial activity against infections induced by gram-negative bacteria. Table IX summarizes the results of tests in which illustrative compounds were evaluated against Pasteurella infections in one-day-old chicks. The compounds were administered by subcutaneous injection at a dosage of 30 mg/kg, 1 and 4 hours post-challenge of the chicks with Pasteurella multocida (0.1 ml of a twenty-hour tryptose broth culture of an avian P. multocida given subcutaneously). In the tests, all ten non-medicated infected chicks died within 24 hours of Pasteurella challenge.

[21] = system: Streptococcus pyogenes C203; test: ED50 in mice experimentally infected with S. pyogenes C203 (Table VIII); assay type: in vivo
Protocol: The C-23 modified derivatives of OMT of this invention have shown in vivo antimicrobial activity against experimental infections. When two doses of test compound were administered to mice experimentally infected with a gram-positive bacterium, S. pyogenes C203, the activity observed was measured as an ED50 value [effective dose in mg/kg to protect 50% of the test animals: see Warren Wick, et al., J. Bacteriol. 81, 233-235 (1961)].

[22] = system: Haemophilus influenzae Holt; test: MIC, standard agar-dilution assay (Table V); assay type: cell-based; conditions: Haemophilus influenzae
Protocol: as §1

Structure (SMILES) | MIC (Streptococcus Group 9960) [µg/mL] | MIC [3] [µg/mL] | MIC [4] [µg/mL] | MIC [5] [µg/mL] | MIC [6] [µg/mL] | MIC [8] [µg/mL] | MIC [9] [µg/mL] | MIC (Shigella sonnei N9) [µg/mL] | MIC [10] [µg/mL] | MIC [13] [µg/mL] | MIC (Mycoplasma synoviae) [µg/mL] | MIC [14] [µg/mL] | MIC (Staphylococcus aureus) [µg/mL] | MIC (Mycoplasma gallisepticum) [µg/mL] | MIC [16] [µg/mL] | MIC [17] [µg/mL] | MIC [18] [µg/mL] | MIC [19] [µg/mL] | also measured
CCC1OC(=O)CC(O)C(C)C(OC2OC(C)C(O)C(N(C)C)C2O)C(CC=O)CC(C)C(=O)C=CC(C)=CC1CN (stereo not shown) [Compound 9, 23-Deoxy-23-amino-OMT] | 8 (≈ 13.4 µM) | 8 (≈ 13.4 µM) | 8 (≈ 13.4 µM) | 8 (≈ 13.4 µM) | 8 (≈ 13.4 µM) | 8 (≈ 13.4 µM) | 8 (≈ 13.4 µM) | > 128 | 8 (≈ 13.4 µM) | 12.5 (≈ 20.9 µM) | 0.78 (≈ 1.31 µM) | 12.5 (≈ 20.9 µM) | 12.5 (≈ 20.9 µM) | 0.78 (≈ 1.31 µM) | 25 (≈ 41.9 µM) | 12.5 (≈ 20.9 µM) | 6.25 (≈ 10.5 µM) | 6.25 (≈ 10.5 µM) | MIC ([1]; S. pyogenes C203, agar dilution, read-out: MIC): 2 µg/mL (≈ 3.35 µM); MIC ([2]; H. influenzae R252, ampicillin-resistant strain, agar dilution, read-out: MIC): 1 µg/mL (≈ 1.68 µM); MIC (Escherichia coli TEM): > 128 µg/mL; MIC (Escherichia coli N10; N10): > 128 µg/mL; MIC [7]: > 128 µg/mL; MIC (Escherichia coli EC14; EC14): > 128 µg/mL; MIC ([11]; X26): 16 µg/mL (≈ 26.8 µM); MIC ([12]; S. pneumoniae Park I, agar dilution, read-out: MIC): 1 µg/mL (≈ 1.68 µM); MIC (Streptococcus sp. 80; Streptococcus sp. 80, broth-dilution microtiter, read-out: MIC): 1.56 µg/mL (≈ 2.61 µM); MIC ([15]; P. multocida 22A, broth-dilution microtiter, read-out: MIC): 25 µg/mL (≈ 41.9 µM); MIC (Mycoplasma hyorhinis): 12.5 µg/mL (≈ 20.9 µM); MIC ([20]; 68C): 12.5 µg/mL (≈ 20.9 µM); Number of deaths/number treated (Pasteurella multocida): 0/10; ED50 ([21]; C203, po, read-out: ED50, Oral): > 100 mg/kg; ED50 ([21]; C203, sc, mice, subcutaneous, doses given 1 and 4 hours postinfection, read-out: ED50, Subcutaneous): 2.6 mg/kg
CCC1OC(=O)CC(O)C(C)C(OC2OC(C)C(O)C(N(C)C)C2O)C(CC=O)CC(C)C(=O)C=CC(C)(OCCc2ccccc2)C2CC12 (stereo not shown) [Compound 18] | 2 (≈ 2.85 µM) | 2 (≈ 2.85 µM) | 1 (≈ 1.42 µM) | 2 (≈ 2.85 µM) | 2 (≈ 2.85 µM) | 1 (≈ 1.42 µM) | 1 (≈ 1.42 µM) | > 128 | 1 (≈ 1.42 µM) | 25 (≈ 35.6 µM) | 3.12 (≈ 4.45 µM) | 25 (≈ 35.6 µM) | 6.25 (≈ 8.9 µM) | 1.56 (≈ 2.22 µM) | 25 (≈ 35.6 µM) | 12.5 (≈ 17.8 µM) | 12.5 (≈ 17.8 µM) | 12.5 (≈ 17.8 µM) | MIC [22]: 8 µg/mL (≈ 11.4 µM); MIC ([1]; C203): 1 µg/mL (≈ 1.42 µM); MIC ([2]; R252): 8 µg/mL (≈ 11.4 µM); MIC (Escherichia coli TEM; E. coli TEM, agar dilution, read-out: MIC): 64 µg/mL (≈ 91.2 µM); MIC (Escherichia coli N10; E. coli N10, agar dilution, read-out: MIC): > 128 µg/mL; MIC ([7]; K. pneumoniae KAE, agar dilution, read-out: MIC): > 128 µg/mL; MIC (Escherichia coli EC14; E. coli EC14, agar dilution, read-out: MIC): > 128 µg/mL; MIC ([11]; K. pneumoniae X26, agar dilution, read-out: MIC): 16 µg/mL (≈ 22.8 µM); MIC [12]: 0.25 µg/mL (≈ 0.356 µM); MIC (Streptococcus sp. 80; Streptococcus, SP.80): 1.56 µg/mL (≈ 2.22 µM); MIC ([15]; 22A): 12.5 µg/mL (≈ 17.8 µM); MIC (Mycoplasma hyorhinis; M. hyorhinis, broth-dilution microtiter, read-out: MIC): 25 µg/mL (≈ 35.6 µM); MIC ([20]; P. multocida 68C, broth-dilution microtiter, read-out: MIC): 25 µg/mL (≈ 35.6 µM)
